# Results published in patent publication US20210292347A1, “DIHETEROCYCLIC TRIAZINONE NUCLEOSIDE ANALOGS AND THEIR USE FOR MEDICATION” (priority 2020, published 2021).
# Entries after “also recorded” stand apart in the source; their conditions may differ. Where two headings read alike, the source gives them in different places.
# What was measured:
# [1] = tested on: human lung cancer cell line NCI-H460; assay: cells; type: cell-based; details: for IC50: Homo sapiens; for inhibitory effect on NCI-H460 cells (in words): lung cancer
# Description: (§1) Cell lines: Human pancreatic cancer cell line Panc-1, human colorectal cancer cell line HT29, human lung cancer cell line NCI-H460 and human breast cancer cell line MCF7; the medium: s DMEM (Gibco BRL), containing 10% fetal calf serum (Gibco BRL) and 2 mM L-glutamine (Gibco BRL).
# (§2) Test samples: example compounds 7, 15, 82, 89, 116 and 135. The samples were dissolved in dimethyl sulfoxide (DMSO, Sigma, United States) and medium was added to the final concentration of 0.5%. Cyclophosphamide ware as positive control (Aldrich, United States, purity>96%).
# (§3) General Method: cells were digested with trypsin and dispersed into single cells in the medium containing penicillin (25 U/ml) and streptomycin (25 μg/mL). The cells were seeded in 96-well culture plates (Corning Incorporated), at 37° C., with 5% CO2 present for 24 hours. The culture medium was removed, […] test compounds were added, cultured for 48 hours. Culture medium was removed and […] (MTT, USA Sigma products) was added. The result was assayed by SK601-based microplate reader (Japan Seikagaku company's products), 570 nm/630 nm optical density (OD). Cell viability determined by the formula: (Experimental group OD/control OD)×100%; CTX and the positive control subjects treated in the same material simultaneously.
# [2] = tested on: human colorectal cancer cell line HT29; assay: cells; type: cell-based; details: for IC50: Homo sapiens, HT-29, MTT; for anti-proliferative effect on HT29 (in words): colorectal cancer
# Description: as §1, §2, §3
# [3] = tested on: Human pancreatic cancer cell line Panc-1; assay: cells; type: cell-based; details: for IC50: Homo sapiens, PANC-1, MTT, 48 hours, read-out: IC50 and 95% confidence limit, anti-proliferative effect on Panc-1
# Description: as §1, §2, §3
# [4] = tested on: human breast cancer cell line MCF7; assay: cells; type: cell-based
# Description: as §1, §2, §3
# [5] = tested on: mice sarcoma S180; assay: Growth inhibition of S180 sarcoma in mice; type: in vivo, Kunming healthy mice; details: for in-vivo anti-tumor efficacy, statistical significance (in words): S180 sarcoma in mice, doses and routes of Table 3
# [6] = NCI-H460, MTT, 48 hours, unit inferred, read-out: IC50 and 95% confidence limits, NCI-H460 cells
# [7] = NCI-H460, MTT, cultured for 48 hours, value (95% confidence limit), Table 2, read-out: IC50 Lung cancer NCI-H460
# [8] = 48 hours, read-out: IC50 and 95% confidence limit, anti-proliferative effect on HT29
# [9] = cultured for 48 hours, value (95% confidence limit), Table 2, read-out: IC50 Colorectal cancer HT-29
# [10] = MCF7, MTT, 48 hours, unit inferred, read-out: IC50 with 95% confidence limits, MCF7 cells
# [11] = MCF7, MTT, cultured for 48 hours, value (95% confidence limit), Table 2, read-out: IC50 Breast cancer MCF7
# [12] = Mus musculus, S-180, mice, iv, read-out: Inhibition rate (%) S180 sarcoma
# [13] = Mus musculus, S-180, mice, ip, read-out: Inhibition rate (%) S180 sarcoma
structure (smiles),measurement,setting,value
"Nc1nn(O)c2c(=O)n(C3OC(CO)C(O)C3O)nnc12 (centres unmarked) [Example 15, 7-amino-3-(3,4-dihydroxy-5-(hydroxymethyl)tetrahydrofuran-2-yl)-5-hydroxy-3H-pyrazolo[4,3-d][1,2,3]triazin-4(5H)-one]",IC50,[1]; [6],22 µM
same,IC50,[1]; [7],22 µM
same,inhibitory effect on NCI-H460 cells (in words),[1],more sensitive to NCI-H460 cells
same,IC50,[2]; [8],3.92 µg/mL
same,IC50,[2]; [9],3.92 µM
same,anti-proliferative effect on HT29 (in words),[2],close values to CTX; also recorded: higher inhibition activity
same,IC50,[3],2.68 µg/mL
same,anti-proliferative effect on Panc-1 (in words),[3]; pancreatic cancer,higher inhibition activity
same,IC50,[4]; [10],2.73 µM
same,IC50,[4]; [11],2.73 µM
same,inhibition in vivo at 50 mg/kg,"[5]; Mus musculus, S-180, mice, iv, 50 mg/kg, read-out: Inhibition rate (%) S180 sarcoma",< 40%
same,"in-vivo anti-tumor efficacy, statistical significance (in words)",[5],statistically significant
"O=P1(N(CCCl)CCCl)NCCCO1 (centres unmarked) [CTX, Cyclophosphamide, reference compound]",IC50,"[1]; NCI-H460, 48 h, read-out: IC50 Lung cancer NCI-H460",4.3 µM
same,IC50,"[1]; NCI-H460, 48 h, read-out: IC50 and 95% confidence limit, NCI-H460 cells",4.3 µg/mL
same,IC50,"[4]; MCF7, 48 h, read-out: IC50 and 95% confidence limit, MCF7 cells",0.92 µg/mL
same,inhibition in vivo at 15 mg/kg,[5]; [12],< 40%
"CCCc1nn(C(C(=O)O)P(=O)(OCC)OCC)c2c(=O)n(C3CCC(CO)O3)nnc12 (centres unmarked) [Example 82, 2-(diethoxyphosphoryl)-2-(3-(5-(hydroxymethyl)tetrahydrofuran-2-yl)-4-oxo-7-propyl-3H-pyrazolo[4,3-d][1,2,3]triazin-5(4H)-yl)acetic acid]",IC50,[1]; [6],60.5 µM
same,IC50,[1]; [7],60.5 µM
same,IC50,[2]; [8],10.2 µg/mL
same,IC50,[2]; [9],13.1 µM
same,anti-proliferative effect on HT29 (in words),[2],relatively weak
same,IC50,[3],53 µg/mL
same,IC50,[4]; [10],34.3 µM
same,IC50,[4]; [11],34.3 µM
same,inhibition in vivo at 15 mg/kg,[5]; [12],< 20%
"Nc1nn(O)c2c(=O)n(C3CSC(CO)O3)nnc12 (centres unmarked) [Example 89, 7-amino-5-hydroxy-3-(2-(hydroxymethyl)-1,3-oxathiolan-5-yl)-3H-pyrazolo[4,3-d][1,2,3]triazin-4(5H)-one]",IC50,[1]; [6],8.52 µM
same,IC50,[1]; [7],8.52 µM
same,IC50,[2]; [8],13.1 µg/mL
same,IC50,[2]; [9],10.2 µM
same,anti-proliferative effect on HT29 (in words),[2],relatively weak
same,IC50,[3],10 µg/mL
same,IC50,[4]; [10],67.5 µM
same,IC50,[4]; [11],67.5 µM
same,inhibition in vivo at 100 mg/kg,[5]; [13],< 40%
same,"in-vivo anti-tumor efficacy, statistical significance (in words)",[5],statistically significant
"N#Cc1nn(C(=N)N)c2c(=O)n(C3OC(CO)C(O)C3O)nnc12 (centres unmarked) [Example 70, 7-cyano-3-(3,4-dihydroxy-5-(hydroxymethyl)tetrahydrofuran-2-yl)-4-oxo-3H-pyrazolo[4,3-d][1,2,3]triazine-5(4H)-carboximidamide]",inhibition in vivo at 100 mg/kg,[5]; [13],< 40%
same,"in-vivo anti-tumor efficacy, statistical significance (in words)",[5],statistically significant
"O=c1c2nnn(CO)c2nnn1C1OC(CO)C(O)C1O (centres unmarked) [Example 152, 6-(3,4-dihydroxy-5-(hydroxymethyl)tetrahydrofuran-2-yl)-3-(hydroxymethyl)-3H-[1,2,3]triazolo[4,5-d][1,2,3]triazin-7(6H)-one]",inhibition in vivo at 400 mg/kg,[5]; [13],< 20%
"O=c1c2c(nnn1C1OC(CO)C(O)C1O)c(N1CCCCC1)nn2O (centres unmarked) [Example 18, 3-(3,4-dihydroxy-5-(hydroxymethyl)tetrahydrofuran-2-yl)-5-hydroxy-7-(piperidin-1-yl)-3H-pyrazolo [4,3-d][1,2,3]triazin-4(5H)-one]",inhibition in vivo at 200 mg/kg,[5]; [13],< 20%
"CCCc1nn(O)c2c(=O)n(C3OC(COC(C(=O)O)P(=O)(NC(C)C)NC(C)C)C(O)C3O)nnc12 (centres unmarked) [Example 103, 2-(bis(isopropylamino)phosphoryl)-2-((3,4-dihydroxy-5-(5-hydroxy-4-oxo-7-propyl-4,5-dihydro-3H-pyrazolo[4,3-d][1,2,3]triazin-3-yl)tetrahydrofuran-2-yl)methoxy)acetic acid]",inhibition in vivo at 100 mg/kg,[5]; [13],< 20%
"N=C(N)n1nc([N+](=O)[O-])c2nnn(C3OC(CO)C(O)C3O)c(=O)c21 (centres unmarked) [Example 72, 3-(3,4-dihydroxy-5-(hydroxymethyl)tetrahydrofuran-2-yl)-7-nitro-4-oxo-3H-pyrazolo[4,3-d][1,2,3]triazine-5(4H)-carboximidamide]",inhibition in vivo at 25 mg/kg,"[5]; Mus musculus, S-180, mice, iv, 25 mg/kg, read-out: Inhibition rate (%) S180 sarcoma",< 40%
same,"in-vivo anti-tumor efficacy, statistical significance (in words)",[5],statistically significant
"CCOC(=O)c1nn(C(N)=S)c2c(=O)n(C3OC(CO)C(O)C3O)nnc12 (centres unmarked) [Example 73, ethyl 5-carbamothioyl-3-(3,4-dihydroxy-5-(hydroxymethyl)tetrahydrofuran-2-yl)-4-oxo-4,5-dihydro-3H-pyrazolo[4,3-d][1,2,3]triazine-7-carboxylate]",inhibition in vivo at 200 mg/kg,[5]; [13],< 40%
same,"in-vivo anti-tumor efficacy, statistical significance (in words)",[5],statistically significant
"CCCc1nn(CO)c2c(=O)n(C3CSC(CO)O3)nnc12 (centres unmarked) [Example 94, 5-(hydroxymethyl)-3-(2-(hydroxymethyl)-1,3-oxathiolan-5-yl)-7-propyl-3H-pyrazolo[4,3-d][1,2,3]triazin-4(5H)-one]",inhibition in vivo at 30 mg/kg,"[5]; Mus musculus, S-180, mice, iv, 30 mg/kg, read-out: Inhibition rate (%) S180 sarcoma",< 40%
same,"in-vivo anti-tumor efficacy, statistical significance (in words)",[5],statistically significant
"CCCc1nn(C)c2c(=O)n(C3CSC(CO)O3)nnc12 (centres unmarked) [Example 91, 3-(2-(hydroxymethyl)-1,3-oxathiolan-5-yl)-5-methyl-7-propyl-3H-pyrazolo[4,3-d][1,2,3]triazin-4(5H)-one]",inhibition in vivo at 200 mg/kg,[5]; [13],< 40%
same,"in-vivo anti-tumor efficacy, statistical significance (in words)",[5],statistically significant
"CCCc1nn(C(=N)N)c2c(=O)n(C3CCC(CO)O3)nnc12 (centres unmarked) [Example 85, 3-(5-(hydroxymethyl)tetrahydrofuran-2-yl)-4-oxo-7-propyl-3H-pyrazolo[4,3-d][1,2,3]triazine-5(4H)-carboximidamide]",inhibition in vivo at 400 mg/kg,[5]; [13],< 20%
"O=c1c2c(nnn1C1OC(CO)C(O)C1O)c([N+](=O)[O-])nn2CO (centres unmarked) [Example 36, 3-(3,4-dihydroxy-5-(hydroxymethyl)tetrahydrofuran-2-yl)-5-(hydroxymethyl)-7-nitro-3H-pyrazolo [4,3-d][1,2,3]triazin-4(5H)-one]",inhibition in vivo at 200 mg/kg,[5]; [13],< 40%
same,"in-vivo anti-tumor efficacy, statistical significance (in words)",[5],statistically significant
"N#Cc1nn(C(N)=O)c2c(=O)n(C3OC(CO)C(O)C3O)nnc12 (centres unmarked) [Example 58, 7-cyano-3-(3,4-dihydroxy-5-(hydroxymethyl)tetrahydrofuran-2-yl)-4-oxo-3H-pyrazolo[4,3-d][1,2,3]triazine-5(4H)-carboxamide]",inhibition in vivo at 100 mg/kg,[5]; [13],< 40%
same,"in-vivo anti-tumor efficacy, statistical significance (in words)",[5],statistically significant
"CCCc1nn(O)c2c(=O)n(C3CCC(CO)O3)nnc12 (centres unmarked) [Example 79, 5-hydroxy-3-(5-(hydroxymethyl)tetrahydrofuran-2-yl)-7-propyl-3H-pyrazolo[4,3-d][1,2,3]triazin-4(5H)-one]",inhibition in vivo at 300 mg/kg,"[5]; Mus musculus, S-180, mice, ip, 300 mg/kg, read-out: Inhibition rate (%) S180 sarcoma",< 20%
"CCOC(=O)c1nn(CO)c2c(=O)n(C3OC3CO)nnc12 (centres unmarked) [Example 7, ethyl 7-(hydroxymethyl)-2-(3-(hydroxymethyl)oxiran-2-yl)-1-oxo-2,7-dihydro-1H-pyrazolo[4,3-d][1,2,3]triazine-5-carboxylate]",IC50,[1]; [6],5.18 µM
same,IC50,[1]; [7],5.18 µM
same,inhibitory effect on NCI-H460 cells (in words),[1],more sensitive to NCI-H460 cells
same,IC50,[2]; [8],18.8 µg/mL
same,IC50,[2]; [9],18.8 µM
same,anti-proliferative effect on HT29 (in words),[2],relatively weak
same,IC50,[3],51.3 µg/mL
same,IC50,[4]; [10],6.18 µM
same,IC50,[4]; [11],6.18 µM
"CCCc1nn(C(=N)N)c2c(=O)n(C3OC(CO)C(O)C3O)nnc12 (centres unmarked) [Example 68, 3-(3,4-dihydroxy-5-(hydroxymethyl)tetrahydrofuran-2-yl)-4-oxo-7-propyl-3H-pyrazolo [4,3-d][1,2,3]triazine-5(4H)-carboximidamide]",inhibition in vivo at 20 mg/kg,"[5]; Mus musculus, S-180, mice, iv, 20 mg/kg, read-out: Inhibition rate (%) S180 sarcoma",< 40%
same,"in-vivo anti-tumor efficacy, statistical significance (in words)",[5],statistically significant
